Values of other authors in US8703739B2, “Intravascular indwelling catheter lock solution containing weak acid and container containing the same” (priority 2008, dated 2014).
Read-outs that look alike come from different tables or passages of the source.

Row | SMILES | Buffer pKa (first pKa) | Buffer pKa (second pKa)
1 | O=C1O[C@H]([C@@H](O)CO)C(O)=C1O [ascorbic acid] | 4.16 | 
2 | O=C(O)CC(O)C(=O)O (stereo not drawn) [malic acid] | 3.23 | 4.77
